From PubChem BioAssay (NCI) come the findings set out here.

Values joined by “and” are separate entries in the source; they are usually repeats but may differ in a detail not shown here. Equal entries are not always repeated.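 Tested at 5 concentrations; 48 h exposure; 96-well plates; endpoints linearly interpolated, else capped at highest concentration. At the GI50, growth is halved. Definition used: TGI = concentration required for complete inhibition of growth.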 Where only a bound is given, the exact number is not on record here.

Holding throughout (test): growth of human tumour cells (NCI), 48 h
For assay [1], the system named is NCI-H460 lung.
For assay [2], the system named is SW-620 colon.
For assay [3], the system named is TK-10 renal.
In assay [4] the test system is K-562 leukemia.
The test system of assay [5] is MOLT-4 leukemia.
For assay [6], the system named is U251 CNS.
In assay [7] the test system is SF-268 CNS.
The subject of assay [8] is RXF 393 renal.
In assay [9] the test system is DU-145 prostate.
The test system of assay [10] is HOP-92 NSCLC.

`O=C(Nc1ccc(S(=O)(=O)Nc2nccs2)cc1)c1cccnc1Nc1cccc(Cl)c1`: the GI50 in [1] was 16 µM; in assay [2] it was 14.2 µM; in assay [3], 22.8 µM; in assay [4], 10.4 µM; in [5] it was 12.5 µM; in assay [6], 13.2 µM. The GI50 in assay [7] is 12.8 µM; in assay [8], 14.4 µM; in [9], 15.2 µM; in [10], 11.2 µM. The TGI was determined as 32.6 µM in assay [1]; 28.7 µM in [2]; 51.1 µM in assay [3]; 41.1 µM in [4]; 88.9 µM in assay [5]; 26.1 µM in assay [6]. The TGI is 31.5 µM in assay [7], 33.4 µM in [8], 30.6 µM in [9] and 36.5 µM in [10].

For the molecule `N#CC1=C(N)Oc2cc3c(cc2C1c1cccs1)OCO3` (stereo not drawn), the GI50 in assay [1] was 0.373 µM; in assay [2], 0.356 µM; in [3], 1.86 µM; in assay [4] it was 0.205 µM; in [5] it was 0.504 µM; in assay [6], 0.397 µM. Besides, the GI50 in assay [7] was 0.654 µM; in [8], 0.311 µM; in assay [9] it was 0.824 µM; in [10] it was 0.66 µM. Also, the TGI in assay [1] was 24.4 µM; in assay [2] it was more than 100 µM; in assay [3] it was more than 67.8 µM; in [4], more than 100 µM; in [5], more than 100 µM; in assay [6], 31.9 µM. Further, the TGI is more than 85.6 µM in assay [7], 2.7 µM in assay [8], more than 100 µM in assay [9] and 26.2 µM in assay [10].

Consider `O=C1/C(=C/c2cccc([N+](=O)[O-])c2)COc2ccc(O)c(O)c21`, for which the GI50 in assay [1] is 2.08 µM; in assay [2], 1.14 µM; in [3], 1.7 µM; in [4] it was 0.506 µM; in assay [5], 2.12 µM; in assay [6], 1.17 µM. In addition, the GI50 in [7] was 1.79 µM; in assay [8], 1.28 µM; in [9], 1.9 µM; in assay [10] it was 2.24 µM. The TGI was 4.97 µM in assay [1]; 3.08 µM in assay [2]; 3.21 µM in assay [3]; 7.22 µM in assay [4]; 12.1 µM in assay [5]; 2.64 µM in assay [6]. For the same molecule, the TGI worked out at 4.3 µM in assay [7], 2.69 µM in [8], 4.39 µM in assay [9] and 8.22 µM in assay [10].

Consider `Cc1ccc(Nc2nc(NCCO)c3ccccc3n2)cc1C`, for which the GI50 in assay [1] is 4.44 µM; in [2] it was 4.03 µM; in assay [3], 11.1 µM; in [4], 3.19 µM; in assay [5], 2.86 µM; in assay [6] it was 2.75 µM. Moreover, the GI50 is 9.27 µM in assay [7], 3.14 µM in [8], 10.3 µM in [9] and 1.97 µM in assay [10]. The TGI in assay [1] worked out at 16.7 µM; in [2] it was 15.7 µM; in [3], 23.3 µM; in assay [4], 13 µM; in assay [5] it was 11 µM; in assay [6], 12.1 µM. The TGI in [7] worked out at 22.2 µM; in assay [8] it was 13.7 µM; in assay [9], 22 µM; in [10], 8.03 µM.

For the molecule `COc1ccc(C(=O)Cn2c(C(=O)c3ccc(Cl)cc3)nc3ccccc32)cc1`, the GI50 in assay [1] is 25.2 µM; in [2], 4.4 µM; in assay [3] it was more than 62.9 µM; in [4] it was 3.33 µM; in [5] it was 3.83 µM; in [6], 19.4 µM. In addition, the GI50 in assay [7] is more than 24.4 µM; in assay [8] it was 3.62 µM; in assay [9] it was more than 100 µM; in assay [10], more than 100 µM. For the same molecule, the TGI in [1], in [2], in [3], in [4], in assay [5] and in [6] was more than 100 µM in each case. The TGI in assay [7] was more than 100 µM; in assay [8] it was 20.5 µM; in [9], more than 100 µM; in assay [10], more than 100 µM.

With `CC(C)C[C@H](NC(=O)[C@H](Cc1ccccc1)n1ccc(N2CCCCC2)cc1=O)B(O)O`, the GI50 in assay [1] was 3.18 µM; in assay [2], 0.376 µM; in assay [3] it was 0.375 µM; in assay [4], 1.08 µM; in [5] it was 0.308 µM; in assay [6], 1.18 µM. In addition, the GI50 in assay [7] was 0.699 µM; in [8] it was 0.284 µM; in assay [9], 0.706 µM; in assay [10], 1.34 µM. For the same molecule, the TGI in assay [1] is more than 100 µM; in assay [2], more than 100 µM; in assay [3] it was 15.6 µM; in assay [4] it was more than 100 µM; in assay [5] it was more than 100 µM; in assay [6] it was more than 100 µM. Also, the TGI was 3.85 µM in [7], 0.882 µM in assay [8], more than 100 µM in [9] and 5.61 µM in [10].

As to `Cc1ccc(NC(c2ccccc2)c2ccc3cccnc3c2O)cc1` (stereo not drawn), the TGI in assay [1] was more than 25 µM; in assay [2] it was more than 52.2 µM; in [3], 14.3 µM; in assay [4], 30 µM; in assay [5], 17.3 µM; in assay [6], 10.9 µM. In addition, the TGI in assay [7] was determined as 13.6 µM; in [8], 22.8 µM; in [9], 23.4 µM; in assay [10], 16 µM.

As for `Cc1[nH]c(=O)[nH]c(=O)c1N(CCF)CCCl`, the GI50 in assay [1] was 118 µM and 264 µM and 171 µM; in assay [2], 321 µM and 289 µM and 147 µM; in assay [4] it was 403 µM and 215 µM; in assay [5], 60.8 µM and 80.6 µM and 43.1 µM; in assay [6] it was 212 µM; in assay [7] it was 192 µM and 329 µM. The GI50 in assay [8] is 128 µM and 265 µM; in assay [10], 153 µM. For the same molecule, the TGI in [1] was 689 µM and 834 µM and 633 µM; in assay [2], 1100 µM and 805 µM; in assay [3], 1070 µM; in assay [4], 757 µM and 1350 µM and 1110 µM; in [5], 254 µM and 393 µM and 563 µM; in assay [6], 693 µM and 1220 µM and 1200 µM. In addition, the TGI in assay [7] is 651 µM and 1120 µM and 1100 µM; in assay [8] it was 296 µM and 662 µM and 596 µM; in assay [9], 1410 µM; in assay [10], 329 µM and 466 µM and 363 µM.
